In ChEMBL document CHEMBL1148353, “Development of potent bifunctional endomorphin-2 analogues with mixed mu-/delta-opioid agonist and delta-opioid antagonist properties” (J Med Chem, 2004):
Where a SMILES comes first, the peptide text is derived from it. [ ]: non-standard residue; d: D form. The star is where a group is joined. Dmt = Cc1cc(O)cc(C)c1C[C@H](N)C(=O)O; NHPhenethyl = c1ccc(CCN*)cc1; NHBn = c1ccc(CN*)cc1; NHPh = c1ccc(N*)cc1; NHtBu = CC(C)(C)N*

How the values were obtained:
Mus musculus = organism: Mus musculus; experiment: In vitro inhibitory concentration against electrically induced twitches in mouse vas deferens; format: functional
[1] = target: Opioid receptors; mu & delta (Rattus norvegicus) (UniProt P33533+P33535); experiment: Ratio of binding affinity against rat brain delta opioid receptor to that of mu opioid receptor
Opioid receptors; mu & delta (Rattus norvegicus), sequence (P33533 whole entry, looked up): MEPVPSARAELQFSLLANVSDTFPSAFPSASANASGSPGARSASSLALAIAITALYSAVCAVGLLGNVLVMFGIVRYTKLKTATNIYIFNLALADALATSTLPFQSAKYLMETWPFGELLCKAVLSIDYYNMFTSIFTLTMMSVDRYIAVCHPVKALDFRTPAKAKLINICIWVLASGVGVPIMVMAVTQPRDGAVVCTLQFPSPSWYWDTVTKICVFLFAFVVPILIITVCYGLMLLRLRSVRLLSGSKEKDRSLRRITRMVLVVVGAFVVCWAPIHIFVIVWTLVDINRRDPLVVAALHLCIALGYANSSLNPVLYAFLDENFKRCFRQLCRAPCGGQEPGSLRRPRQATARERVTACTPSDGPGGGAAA
Opioid receptors; mu & delta (Rattus norvegicus), sequence (P33535 whole entry, looked up): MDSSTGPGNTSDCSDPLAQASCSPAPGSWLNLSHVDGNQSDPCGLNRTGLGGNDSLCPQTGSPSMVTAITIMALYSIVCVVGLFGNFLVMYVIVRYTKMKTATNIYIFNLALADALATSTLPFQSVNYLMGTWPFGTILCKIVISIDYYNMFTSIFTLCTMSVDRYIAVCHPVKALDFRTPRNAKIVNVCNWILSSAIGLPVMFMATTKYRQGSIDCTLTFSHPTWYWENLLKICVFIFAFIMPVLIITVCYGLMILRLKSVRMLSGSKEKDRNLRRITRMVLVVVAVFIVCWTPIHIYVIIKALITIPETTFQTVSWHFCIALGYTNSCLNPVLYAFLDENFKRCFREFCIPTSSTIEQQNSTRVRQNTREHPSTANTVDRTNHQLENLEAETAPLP

Cavia porcellus = organism: Cavia porcellus; experiment: In vitro inhibitory concentration against electrically induced twitches in guinea pig ileum; format: functional
Mu-type opioid receptor = Mu-type opioid receptor (Rattus norvegicus, UniProt P33535); experiment: Binding affinity against rat brain Opioid receptor mu 1 using [3H]DAMGO radioligand
Mu-type opioid receptor, sequence (P33535 whole entry): as the sequence (P33535 whole entry, looked up) above

[2] = target: Delta-type opioid receptor (Rattus norvegicus, UniProt P33533); experiment: Binding affinity against rat brain opioid receptor delta 1 using [3H]DPDPE radioligand
Delta-type opioid receptor, sequence (P33533 whole entry): as the sequence (P33533 whole entry, looked up) above

| SMILES | IC50 (Mus musculus) [nM] | Ratio [1] | IC50 (Cavia porcellus) [nM] | Ki (Mu-type opioid receptor) [nM] | Ki [2] [nM] |
| --- | --- | --- | --- | --- | --- |
| Cc1cc(O)cc(C)c1C[C@H](N)C(=O)N1CCC[C@H]1C(=O)N[C@@H](Cc1ccccc1)C(=O)NCCc1ccccc1 (H-[Dmt]-Pro-Phe-NHPhenethyl) | > 10000 | 35 | 5.03 | 0.51 | 18 |
| Cc1cc(O)cc(C)c1C[C@H](N)C(=O)N1CCC[C@H]1C(=O)N[C@@H](Cc1ccccc1)C(=O)Nc1cccnc1 | > 10000 | – | 72.8 | 0.17 | 288 |
| N[C@@H](Cc1ccc(O)cc1)C(=O)N1CCC[C@H]1C(=O)N[C@@H](Cc1ccccc1)C(=O)Nc1ccncc1 | – | 521 | – | 48.2 | 25100 |
| N[C@@H](Cc1ccc(O)cc1)C(=O)N1CCC[C@H]1C(=O)N[C@@H](Cc1ccccc1)C(=O)Nc1ccccc1 (H-Tyr-Pro-Phe-NHPh) | – | 692 | – | 33.5 | 23200 |
| N[C@@H](Cc1ccc(O)cc1)C(=O)N1CCC[C@H]1C(=O)N[C@@H](Cc1ccccc1)C(=O)NCc1ccccc1 (H-Tyr-Pro-Phe-NHBn) | – | 80 | – | 21.6 | 1730 |
| Cc1cc(O)cc(C)c1C[C@H](N)C(=O)N1CCC[C@H]1C(=O)N[C@@H](Cc1ccccc1)C(=O)Nc1cccc2ncccc12 | 0.616 | 283 | 0.26 | 0.11 | 30 |
| Cc1cc(O)cc(C)c1C[C@H](N)C(=O)N1CCC[C@H]1C(=O)N[C@@H](Cc1ccccc1)C(=O)Nc1ccccn1 | > 10000 | – | 15 | 0.13 | 157 |
| N[C@@H](Cc1ccc(O)cc1)C(=O)N1CCC[C@H]1C(=O)N[C@@H](Cc1ccccc1)C(=O)NC1C2C[C@H]3C[C@@H](C2)C[C@@H]1C3 (some centres undefined) | – | 844 | – | 6.59 | 5560 |
| N[C@@H](Cc1ccc(O)cc1)C(=O)N1CCC[C@H]1C(=O)N[C@@H](Cc1ccccc1)C(=O)NCCc1ccccc1 (H-Tyr-Pro-Phe-NHPhenethyl) | – | 324 | – | 13.3 | 4310 |
| Cc1cc(O)cc(C)c1C[C@H](N)C(=O)N1CCC[C@H]1C(=O)N[C@@H](Cc1ccccc1)C(=O)Nc1cccc2cnccc12 | > 10000 | – | 0.94 | 0.19 | 98.3 |
| Cc1cc(O)cc(C)c1C[C@H](N)C(=O)N1CCC[C@H]1C(=O)N[C@@H](Cc1ccccc1)C(=O)Nc1cccc2ccccc12 | 5.47 | 68 | 0.49 | – | 19.9 |
| N[C@@H](Cc1ccc(O)cc1)C(=O)N1CCC[C@H]1C(=O)N[C@@H](Cc1ccccc1)C(=O)Nc1cnc2ccccc2c1 | – | 333 | – | 55.8 | 18600 |
| Cc1cc(O)cc(C)c1C[C@H](N)C(=O)N1CCC[C@H]1C(=O)N[C@@H](Cc1ccccc1)C(=O)Nc1cccc2cccnc12 | 2980 | – | 445 | 0.49 | 33.1 |
| Cc1cc(O)cc(C)c1C[C@H](N)C(=O)N1CCC[C@H]1C(=O)N[C@@H](Cc1ccccc1)C(=O)Nc1ccccc1 (H-[Dmt]-Pro-Phe-NHPh) | > 10000 | – | 37.7 | 1.11 | 20.6 |
| Cc1cc(O)cc(C)c1C[C@H](N)C(=O)N1CCC[C@H]1C(=O)N[C@@H](Cc1ccccc1)C(=O)Nc1ccc2ncccc2c1 | > 10000 | – | 6.21 | 0.22 | 46.6 |
| N[C@@H](Cc1ccc(O)cc1)C(=O)N1CCC[C@H]1C(=O)N[C@@H](Cc1ccccc1)C(=O)Nc1cccc2cnccc12 | – | 57 | – | 61.1 | 3480 |

| SMILES | IC50 (Mus musculus) [nM] | Ratio [1] | IC50 (Cavia porcellus) [nM] | Ki (Mu-type opioid receptor) [nM] | Ki [2] [nM] |
| --- | --- | --- | --- | --- | --- |
| Cc1cc(O)cc(C)c1C[C@H](N)C(=O)N1CCC[C@H]1C(=O)N[C@@H](Cc1ccccc1)C(=O)Nc1ccncc1 | 10000 | – | 11.8 | 0.36 | 52.7 |
| N[C@@H](Cc1ccc(O)cc1)C(=O)N1CCC[C@H]1C(=O)N[C@@H](Cc1ccccc1)C(=O)NC12C[C@H]3C[C@@H](C1)C[C@@H](C2)C3 | – | 265 | – | 23.6 | 6260 |
| Cc1cc(O)cc(C)c1C[C@H](N)C(=O)N1CCC[C@H]1C(=O)N[C@@H](Cc1ccccc1)C(=O)N[C@@H](Cc1ccccc1)C(N)=O | 1.87 | 188 | 0.07 | 0.15 | 28.2 |
| NC(=O)[C@H](Cc1ccccc1)NC(=O)[C@@H]1CCCN1C(=O)[C@@H](N)Cc1ccc(O)cc1 (H-Tyr-Pro-Phe-NH2) | – | 343 | – | 46.3 | 15900 |
| Cc1cc(O)cc(C)c1C[C@H](N)C(=O)N1CCC[C@H]1C(=O)N[C@@H](Cc1ccccc1)C(=O)NCc1ccccc1 (H-[Dmt]-Pro-Phe-NHBn) | > 10000 | – | 22 | 0.52 | 13.8 |
| N[C@@H](Cc1ccc(O)cc1)C(=O)N1CCC[C@H]1C(=O)N[C@@H](Cc1ccccc1)C(=O)Nc1ccc2ncccc2c1 | – | 136 | – | 72.9 | 9880 |
| N[C@@H](Cc1ccc(O)cc1)C(=O)N1CCC[C@H]1C(=O)N[C@@H](Cc1ccccc1)C(=O)Nc1cccc2ccccc12 | – | 1510 | – | 2.41 | 3640 |
| N[C@@H](Cc1ccc(O)cc1)C(=O)N1CCC[C@H]1C(=O)N[C@@H](Cc1ccccc1)C(=O)Nc1cccnc1 | – | 400 | – | 48.5 | 19400 |
| N[C@@H](Cc1ccc(O)cc1)C(=O)N1CCC[C@H]1C(=O)N[C@@H](Cc1ccccc1)C(=O)Nc1ccccn1 | – | 742 | – | 26.5 | 19700 |
| N[C@@H](Cc1ccc(O)cc1)C(=O)N1CCC[C@H]1C(=O)N[C@@H](Cc1ccccc1)C(=O)Nc1cccc2cccnc12 | – | 68 | – | 249 | 17100 |
| Cc1cc(O)cc(C)c1C[C@H](N)C(=O)N1CCC[C@H]1C(=O)N[C@@H](Cc1ccccc1)C(N)=O (H-[Dmt]-Pro-Phe-NH2) | 113 | 443 | 2.33 | 0.12 | 53.2 |
| N[C@@H](Cc1ccc(O)cc1)C(=O)N1CCC[C@H]1C(=O)N[C@@H](Cc1ccccc1)C(=O)NC1CCCCC1 | – | 1400 | – | 5.79 | 8110 |
| Cc1cc(O)cc(C)c1C[C@H](N)C(=O)N1CCC[C@H]1C(=O)N[C@@H](Cc1ccccc1)C(=O)Nc1cnc2ccccc2c1 | > 10000 | 577 | 9.14 | 0.33 | 190 |
| N[C@@H](Cc1ccc(O)cc1)C(=O)N1CCC[C@H]1C(=O)N[C@@H](Cc1ccccc1)C(=O)Nc1cccc2ncccc12 | – | 3110 | – | 4.07 | 12700 |
| CC(C)(C)NC(=O)[C@H](Cc1ccccc1)NC(=O)[C@@H]1CCCN1C(=O)[C@@H](N)Cc1ccc(O)cc1 (H-Tyr-Pro-Phe-NHtBu) | – | 680 | – | 19.6 | 13300 |
| NC(=O)[C@H](Cc1ccccc1)NC(=O)[C@H](Cc1ccccc1)NC(=O)[C@@H]1CCCN1C(=O)[C@@H](N)Cc1ccc(O)cc1 [ENDOMORPHIN 2] | 344 | – | 5.79 | – | – |
